Results as given in the CheMixHub viscosity set.

Test: xn = mol fraction of the nth substance listed

CC(C)CCl + CC(C)(C)O
viscosity [mPa·s], 101.33 kPa
Details | x1 = 0.0982 | x1 = 0.2011 | x1 = 0.3047 | x1 = 0.4029 | x1 = 0.5031 | x1 = 0.6023 | x1 = 0.6979 | x1 = 0.7997 | x1 = 0.8948
298.15 K | 2.345 | 1.477 | 1.065 | 0.8424 | 0.6988 | 0.604 | 0.5388 | 0.4863 | 0.3827
313.15 K | 1.359 | 0.9661 | 0.7571 | 0.6303 | 0.5423 | 0.481 | 0.437 | 0.4053 | 0.3751

ClC(Cl)=C(Cl)Cl + CC(C)(C)O
303.15 K, 101.33 kPa
Details | viscosity [mPa·s]
x1 = 0.1027 | 2.16
x1 = 0.2143 | 1.557
x1 = 0.3299 | 1.249
x1 = 0.4102 | 1.122
x1 = 0.5188 | 1.006
x1 = 0.6036 | 0.946
x1 = 0.7072 | 0.895
x1 = 0.8124 | 0.852
x1 = 0.9075 | 0.821

O=[N+]([O-])c1ccccc1 + CC(C)(C)O
viscosity [mPa·s], 101.33 kPa
Details | x1 = 0.0627 | x1 = 0.1307 | x1 = 0.2059 | x1 = 0.2864 | x1 = 0.3758 | x1 = 0.4746 | x1 = 0.5843 | x1 = 0.7067 | x1 = 0.8442
298.15 K | 3.205 | 2.576 | 2.256 | 2.001 | 1.838 | 1.711 | 1.655 | 1.697 | 1.681
303.15 K | 2.375 | 2.152 | 1.896 | 1.732 | 1.622 | 1.506 | 1.468 | 1.477 | 1.538

C1CCC2CCCCC2C1 (stereo not drawn) + CC(C)CC(C)(C)C
viscosity [mPa·s], 101 kPa
Details | x2 = 0.1031 | x2 = 0.1995 | x2 = 0.299 | x2 = 0.4001 | x2 = 0.5004 | x2 = 0.6002 | x2 = 0.6994 | x2 = 0.8002 | x2 = 0.899
293.15 K | 2.019 | 1.701 | 1.435 | 1.203 | 1.026 | 0.876 | 0.758 | 0.656 | 0.571
298.15 K | 1.842 | 1.561 | 1.323 | 1.114 | 0.955 | 0.818 | 0.711 | 0.62 | 0.54
303.15 K | 1.688 | 1.436 | 1.223 | 1.034 | 0.89 | 0.765 | 0.667 | 0.581 | 0.509
308.15 K | 1.553 | 1.327 | 1.135 | 0.963 | 0.831 | 0.717 | 0.627 | 0.547 | 0.482
313.15 K | 1.434 | 1.23 | 1.056 | 0.905 | 0.778 | 0.673 | 0.59 | 0.516 | 0.456
318.15 K | 1.328 | 1.142 | 0.983 | 0.838 | 0.727 | 0.63 | 0.552 | 0.483 | 0.425
323.15 K | 1.234 | 1.066 | 0.921 | 0.788 | 0.686 | 0.597 | 0.525 | 0.461 | 0.408
